Where a name gives a salt, the structure may show the parent alone.
Assays:
[1] = tested on: Botrytis cinerea; experiment: Antifungal activity against Botrytis cinerea on plants (percent control relative to untreated plants); settings: Example 3; stored at 54° C. for two weeks or at 40° C. for eight weeks
[2] = tested on: Alternaria solani; experiment: Antifungal activity against Alternaria solani on tomato plants (percent control relative to untreated plants); format: in vivo
[3] = Relative fusaricidin A levels in stored formulations by HPLC/MS TOF; settings: Example 4; 54° C. for two weeks or 40° C. for eight weeks; FIGS. 3 and 4
[4] = Example 3, stored at 54° C. for two weeks or at 40° C. for eight weeks
[5] = across the three assays of Tables 2-4, agent at 2% in 60:40 (BC:water) dilution
[6] = agent at 2% in 70:30 (BC:water) dilution, after storage at 54° C. for two weeks

| Compound | effect of stabilizing agent on antifungal activity of Paenibacillus sp. strain NRRL B-50972 BC [1] | effect of stabilizing agent on antifungal activity of Paenibacillus sp. strain NRRL B-50972 BC [2, 4] | effect of stabilizing agent on antifungal activity of Paenibacillus sp. strain NRRL B-50972 BC [2, 5] | effect of stabilizing agent on antifungal activity of Paenibacillus sp. strain NRRL B-50972 BC [2, 6] | effect of stabilizing agent on fusaricidin A in Paenibacillus sp. strain NRRL B-50972 BC [3] |
| --- | --- | --- | --- | --- | --- |
| NC(N)=O [urea, carbonic diamide (CO(NH2)2)] | robust effect in stabilizing the antifungal activity | robust effect in stabilizing the antifungal activity | preserved the antifungal activity | – | – |
| O=P([O-])(O)O.[K+] [potassium phosphate (monobasic)] | – | – | – | did not | – |
| C[N+](C)(C)CC(=O)O [betaine hydrochloride] | robust effect in stabilizing the antifungal activity | robust effect in stabilizing the antifungal activity | – | – | – |
| O=P([O-])([O-])O.[K+].[K+] [potassium phosphate (dibasic)] | less than that of urea and betaine hydrochloride | less than that of urea and betaine hydrochloride | – | stabilized the antifungal activity | had less of an effect in stabilizing fusaricidin A |
| O=C([O-])CC(O)(CC(=O)[O-])C(=O)[O-].[K+].[K+].[K+] [Potassium citrate (tribasic), potassium citrate (tribasic)] | – | – | – | demonstrated a stabilizing effect | – |
| N=C(N)N [guanidine hydrochloride] | – | – | preserved the antifungal activity | – | – |
| glycerol ethyl oxylate | – | – | had little effect | – | – |

Reference: patent publication US20210204550A1, “STABILIZED FUNGICIDAL COMPOSITION” (priority 2018, published 2021)
